# Experiments:
# [1] = system: human multiple myeloma NCI-H929 xenograft tumors; assay: In vivo activity of combination therapy with bortezomib or tazemetostat against NCI-H929 transplanted tumor; design: species or system NOD/SCID mice; conditions: I-8 3 mg/kg QD; for Average volume (mm^3) (Day 10) / Tumor inhibition rate TGI (%) / Initial volume (mm^3): Bort 1 mg/kg BIW, Taze 100 mg/kg QD, combinations given as + Bort 3 mg/kg BIW / + Taze 3 mg/kg QD; for Initial volume (mm^3): baseline
# Method: In this example, the human multiple myeloma NCI-H929 cell line was selected as the cell model to determine the inhibitory effects of compounds, bortezomib (Bort), and tazemetostat (Taze), as single drugs and in combination, on the growth of NOD/SCID mouse transplanted tumors of NCI-H929 tumor cells. The evaluation methods and results are described below.
# (§1) Human multiple myeloma NCI-H929 cells were routinely cultured in RPMI1640 containing 10% fetal bovine serum at 37°C in a 5% CO2 incubator. After three passages in vitro, when the cells reached over 80% confluence and the required confluence rate, the cells were digested and harvested. After washing with PBS, the cells were counted and the cell concentration was adjusted to approximately 5 × 10^7 cells/mL. The cells were then placed in 4 mL centrifuge tubes on ice for later use.
# (§2) Female NOD/SCID mice aged 4-5 weeks were selected and subcutaneously inoculated with NCI-H929 cells ectopically. The mice were held in a lateral position, the forelimb axilla was disinfected with 75% alcohol, and 100 µL of the cell suspension was injected subcutaneously into the axilla using a 1 mL syringe ([…]/100 µL).
# After the tumors grew to 90-150 mm^3, the animals were randomly divided into groups, 8 mice in each group, and administered according to different administration methods as follows: • Model control group: Administered with the same volume of Vehicle (DMSO: 0.5% sodium carboxymethyl cellulose: distilled water = 1:1:8) daily by gavage; • Test group 1: administered with I-8 solution at 3 mg/kg (mouse body weight) daily by gavage; • Test group 2: administered with bortezomib (Bort) solution at 1 mg/kg (mouse body weight) twice weekly by gavage; • Test group 3: administered with tazemetostat solution at 100 mg/kg (mouse body weight) daily by gavage; • Test group 4: administered with I-8 at 3 mg/kg (mouse body weight) daily by gavage and bortezomib (Bort) solution at 1 mg/kg (mouse body weight) twice weekly by gavage; • Test group 5: administered with I-8 at 3 mg/kg (mouse body weight) daily by gavage and tazemetostat (Taze) solution at 100 mg/kg (mouse body weight) daily by gavage;
# (§3) The route of administration was oral gavage, and the administration frequency was once daily, for 10 consecutive days. The first day of administration was defined as Day 1 of the experiment. Tumor volume changes in mice were measured and recorded every two days. Tumor volume was measured using a vernier caliper, in which the major axis (a) and minor axis (b) of the tumor were measured, and the tumor volume was calculated as tumor volume V (mm^3) = a x b^2/2. After the experiment, the mice were dissected and the tumor weight was measured. The data were entered and statistically analyzed using GraphPad Prism 6 software. The data are expressed as mean ± SEM (Standard Error of Mean), and one-way ANOVA was used. P ≤ 0.05 was considered statistically significant.
# [2] = system: human multiple myeloma NCI-H929 xenograft tumors; assay: In vivo antitumor activity against NCI-H929 transplanted tumors; design: species or system NOD/SCID mice; conditions: QD; for Tumor inhibition rate TGI (%) / Average volume (mm^3) (Day 10) / Initial volume (mm^3): oral gavage; for Tumor inhibition rate TGI (%): 10 consecutive days; for Initial volume (mm^3): baseline
# Method: In this example, the human multiple myeloma NCI-H929 cell line was used as the cell model. The inhibitory effects of compounds on the growth of NOD/SCID mouse transplanted tumors of NCI-H929 tumor cells were determined. The evaluation methods and results are described below.
# as §1, §2
# After the tumors grew to 90-150 mm^3, the animals were randomly divided into groups, 8 mice in each group, and administered according to different administration methods as follows: • Model control group: Administered with the same volume of Vehicle (DMSO: 0.5% sodium carboxymethyl cellulose: distilled water = 1:1:8) daily by gavage; • Control drug group 1: administered with pomalidomide solution at 10 mg/kg (mouse body weight) daily by gavage; • Control drug group 2: administered with CC-220 solution at 3 mg/kg (mouse body weight) daily by gavage; • Control drug group 3: administered with CC-220 solution at 10 mg/kg (mouse body weight) daily by gavage; • Experimental compound group 4: administered with compound I-4 solution at 3 mg/kg (mouse body weight) daily by gavage; • Experimental compound group 5: administered with compound I-4 solution at 10 mg/kg (mouse body weight) daily by gavage; • Experimental compound group 6: administered with compound I-8 solution at 3 mg/kg (mouse body weight) daily by gavage; • Experimental compound group 7: administered with compound I-8 solution at 10 mg/kg (mouse body weight) daily by gavage;
# as §3
# [3] = system: human multiple myeloma NCI-H929 xenograft tumors; assay: In vivo activity in combination with dexamethasone against NCI-H929 transplanted tumor; design: species or system NOD/SCID mice; conditions: each drug 3 mg/kg, QD, oral gavage, alone or combined
# Method: In this example, human multiple myeloma NCI-H929 cell line was selected as the cell model to determine the inhibitory effects of compound and dexamethasone alone, as well as combination thereof on the growth of NOD/SCID mouse transplanted tumors of NCI-H929 tumor cells. The evaluation methods and results are described below.
# as §1, §2
# After the tumors grew to 90-150 mm^3, the animals were randomly divided into groups, 8 mice in each group, and administered according to different administration methods as follows: • Model control group: Administered with the same volume of Vehicle (DMSO: 0.5% sodium carboxymethyl cellulose: distilled water = 1:1:8) daily by gavage; • Test group 1: administered with dexamethasone (Dex) solution at 3 mg/kg (mouse body weight) daily by gavage; • Test group 2: administered with I-4 solution at 3 mg/kg (mouse body weight) daily by gavage; • Test group 3: administered with I-8 solution at 3 mg/kg (mouse body weight) daily by gavage; • Test group 4: administered with dexamethasone at 3 mg/kg (mouse body weight) and 1-4 solution at 3 mg/kg (mouse body weight) daily by gavage; • Test group 5: administered with dexamethasone at 3 mg/kg (mouse body weight) and I-8 solution at 3 mg/kg (mouse body weight) daily by gavage;
# as §3
# MV-4-11 cells = assay: Antiproliferative activity, CCK-8 assay; assay type: cell-based; conditions: Homo sapiens, MV4-11; 144 hours incubation, CCK-8, absorbance at 450 nm
# Method: (§4) The cell models used in this example were human hematologic tumor cells, including NCI-H929, RPMI-8226, MV-4-11, U937 and WSU-DLCL-2. Some of the compounds of the present invention were selected to determine their inhibitory activity against the proliferation of NCI-H929, RPMI-8226, MV-4-11, U937, and WSU-DLCL-2 cells.
# (§5) • ① The selected compounds were dissolved in DMSO to prepare 10 mM stock solutions. Compounds used within three months should be stored at room temperature in a desiccator; others could be stored at -20°C for long-term storage. • ② The above stock solutions and the positive reference compound pomalidomide were diluted with DMSO. Their initial concentrations were 10 µM. In the experiments of NCI-H929 and RPMI-8226 cells, 3-fold serial dilution with 11 concentration points was performed, with the lowest concentration of 0.00047 µM. The resulting solutions were shaken on a shaker for 5 minutes.
# (§6) • ① The NCI-H929, RPMI-8226, MV-4-11, U937, and WSU-DLCL-2 cells in logarithmic growth phase were inoculated in a 96-well plate, 20,000 to 30,000 cells per well, and the plate was pre-cultured for 24 hours in an incubator (at 37°C and 5% CO2). • ② The culture medium in the plate was replaced, and the compounds and the positive control with corresponding concentrations were added to the plated at a volume of 50 µl. • ③ The plate was incubated for 144 hours in an incubator, then 15 µl of CCK-8 solution was added to each well, and incubated in the incubator for another 1-4 hours. • ④ The absorbance at 450 nm was measured using a microplate reader.
# (§7) • ① Calculating % Inhibition: [formula] • ② Calculating IC50 value of compound and plotting dose-response curve: The IC50 value was calculated by fitting the % Inhibition and the logarithm of compound concentration to a nonlinear regression (dose response-variable slope) by using GraphPad 6.0. • Y = Bottom + (Top - Bottom) / (1 + 10^((LogIC50 - X) * HillSlope)) • X: log of inhibitor concentration; Y: % Inhibition.
# (§8) After calculating % Inhibition, a dose-response curve was plotted with the logarithm of the test compound concentration as the x-axis and the average cell viability as the y-axis, and the IC50 value was obtained by fitting.
# U937 cells = assay: Antiproliferative activity, CCK-8 assay; assay type: cell-based; conditions: Homo sapiens, U-937; 144 hours incubation, CCK-8, absorbance at 450 nm
# Method: as §4, §5, §6, §7, §8
# WSU-DLCL-2 cells = assay: Antiproliferative activity, CCK-8 assay; assay type: cell-based; conditions: Homo sapiens, WSUDLCL2; 144 hours incubation, CCK-8, absorbance at 450 nm
# Method: as §4, §5, §6, §7, §8
# RPMI-8226 cells = assay: Antiproliferative activity, CCK-8 assay; assay type: cell-based; conditions: Homo sapiens, 144 hours incubation, CCK-8, absorbance at 450 nm
# Method: as §4, §5, §6, §7, §8
# NCI-H929 cells = assay: Antiproliferative activity, CCK-8 assay; assay type: cell-based; conditions: Homo sapiens, 144 hours incubation, CCK-8, absorbance at 450 nm, read-out: IC50 (µM) H-929
# Method: as §4, §5, §6, §7, §8
SMILES,IC50 (MV-4-11 cells) [µM],IC50 (U937 cells) [µM],IC50 (WSU-DLCL-2 cells) [µM],IC50 (RPMI-8226 cells) [µM],IC50 (NCI-H929 cells) [µM],further results
"CC(C)C[C@H](NC(=O)[C@H](Cc1ccccc1)NC(=O)c1cnccn1)B(O)O [Bort, bortezomib]",,,,,,"Average volume (mm^3) (Day 10) [1]: 1249.7 mm^3; Tumor inhibition rate TGI (%) [1]: 30.78%; growth of NCI-H929 transplanted tumors (in words) ([1]; bortezomib 1 mg/kg BIW, tazemetostat 100 mg/kg QD, alone or combined): weaker tumor-inhibiting abilities; Initial volume (mm^3) [1]: 100.6 mm^3"
"O=C1CC[C@H](N2Cc3c(OCc4ccc(CN5CCOCC5)cc4)cccc3C2=O)C(=O)N1 [CC-220, reference compound]",,,,,,"Tumor inhibition rate TGI (%) ([2]; 3 mg/kg): 77.98%; Average volume (mm^3) (Day 10) ([2]; 3 mg/kg): 643.1 mm^3; Initial volume (mm^3) ([2]; 3 mg/kg): 214.6 mm^3; Tumor inhibition rate TGI (%) ([2]; 10 mg/kg): 100.09%; Average volume (mm^3) (Day 10) ([2]; 10 mg/kg): 205.5 mm^3; Initial volume (mm^3) ([2]; 10 mg/kg): 207.2 mm^3; body weight ([2]; 10 mg/kg, during the experiment, Figure 2B): decreasing trend in body weight"
"C[C@@H]1C[C@H]2[C@@H]3CCC4=CC(=O)C=C[C@]4(C)[C@@]3(F)[C@@H](O)C[C@]2(C)[C@@]1(O)C(=O)CO [Dex, dexamethasone, reference compound]",,,,,,Tumor inhibition rate TGI (%) ([3]; 10 consecutive days): 45.48%; Average volume (mm^3) (Day 10) ([3]; Day 10): 1048.6 mm^3; Initial volume (mm^3) ([3]; baseline): 185.7 mm^3
"CN1Cc2c(NCc3ccc(CN4CCOCC4)cc3)cccc2C(=O)N1C1CCC(=O)NC1=O (centres unmarked) [I-1, 3-(3-methyl-5-((4-(morpholinomethyl)benzyl)amino)-1-oxo-3,4-dihydrophthalazin-2(1H)-yl)piperidin-2,6-dione]",3.43,1.32,0.358,,,
"CNc1cccc2c1CN(C)N(C1CCC(=O)NC1=O)C2=O (centres unmarked) [I-2, 3-(3-methyl-5-(methylamino)-1-oxo-3,4-dihydrophthalazin-2(1H)-yl)piperidin-2,6-dione]",> 10,1.33,1.06,8.31,0.311,
"CN1Cc2c(NCc3ccc(CN4CCN(c5ccccc5)CC4)cc3)cccc2C(=O)N1C1CCC(=O)NC1=O (centres unmarked) [I-3, 3-(3-methyl-1-oxo-5-((4-((4-phenylpiperazin-1-yl)methyl)benzyl)amino)-3,4-dihydrophthalazin-2(1H)-yl)piperidin-2,6-dione]",1.39,1.11,0.279,,1.3,
"CN1Cc2c(NCc3ccc(CN4CCN(C(=O)OC(C)(C)C)CC4)cc3)cccc2C(=O)N1C1CCC(=O)NC1=O (centres unmarked) [I-5, tert-butyl 4-(4-(((2-(2,6-dioxopiperidin-3-yl)-3-methyl-1-oxo-1,2,3,4-tetrahydrophthalazin-5-yl)amino)methyl)benzyl)piperazin-1-carboxylate]",0.174,0.666,0.108,0.641,0.243,
CN1Cc2c(NCc3ccc(CN4CCN(c5ccc(F)cc5)CC4)cc3)cccc2C(=O)N1C1CCC(=O)NC1=O (centres unmarked) [I-6],0.0311,0.0522,0.048,1.26,0.032,
CN1Cc2c(NCc3ccc(CN4CCN(c5ccc(C#N)cc5)CC4)cc3)cccc2C(=O)N1C1CCC(=O)NC1=O (centres unmarked) [I-7],0.0155,0.0348,0.053,0.442,0.028,
"CCN(c1cc(-c2ccc(CN3CCOCC3)cc2)cc(C(=O)NCc2c(C)cc(C)[nH]c2=O)c1C)C1CCOCC1 [Taze, tazemetostat]",,,,,,Average volume (mm^3) (Day 10) [1]: 1558.0 mm^3; Tumor inhibition rate TGI (%) [1]: 12.83%; Initial volume (mm^3) [1]: 110.8 mm^3

# Reference: patent publication EP4722203A1, “3,4-DIHYDROPHTHALAZIN-1(2H)-ONE DERIVATIVE, AND PREPARATION METHOD THEREFOR AND USE THEREOF” (Academy of Military Medical Sciences, priority 2023, dated 2024)
